Measured values as given in patent US12539281B2 (priority 2021, dated 2026).

Tests used:
[1] = system: blood-brain barrier (BBB); assay: Comparison of intracardiac EA and NEO100 mediated BBB opening, EB dye (Comparative Experiment 19, Experiment 20); assay type: in vivo, mice; settings: mice
Experimental: Intracardiac injected various concentrations of EA (at 25%, 20%, 3%, 0.3%, and 0.1%, 0.03%, 0.01%) and NEO100 (at 25%, 20%, 3%, 0.3%, and 0.1%, 0.03%, 0.01%) are used on mice to test their effects on BBB disruption and evaluated by the observation of extravasated EB dye in the brain tissues. […] Photographs of the perfused brain tissues from the experimental mice treated with […] EA and NEO100 are taken for observation and comparison.
The same procedure as experiment 19 was performed with IA 0.3% NEO100 with 2% EB dye solution.

[2] = system: blood-brain barrier (BBB); settings: group B: 300 μl 3% EA infused in 5 seconds, room temperature
[3] = system: blood-brain barrier (BBB); settings: 300 μl 3% EA via microcatheter in left ICA, IV 2% EB at 30 min intervals, rats
Excerpt: Evans blue (EB) dye is used as the non-BBB permeable substance.
In this experiment, the microcatheter is placed in the left internal carotid artery (ICA). The left internal carotid artery (ICA) leads to the left hemisphere of the brain. (That is, the selected intracerebral artery is the left internal carotid artery (ICA); and the target area is the left hemisphere of the brain.)

[4] = system: blood-brain barrier (BBB); assay: Intraarterial EA-mediated antibody delivery into normal rat brain via left internal carotid artery catheter (Experiments 15-17); assay type: in vivo, rats
Experimental: The experimental rat is treated with IA 3% EA+50 μg goat anti-rat IgG (H+L) ALEXA FLUOR® 647 (ab150167, Cambridge, MA USA) via the left internal carotid artery catheter. The micrograph of the whole brain section is scanned with a fluorescence microscope. Two sections from the right and left hemispheres of the brain are selected respectively and are enlarged with a magnification of 63×. The scale bar used is 50 μm. The images of the left and right hemispheres, and the enlarged sections are studied.
EA-mediated antibody (goat anti-rat IgG (H+L) ALEXA FLUOR® 647) brain entry via catheter placement through the internal carotid artery (left) are tested. The cryosection photographs and images from the confocal microscope after EA treatment are taken for studies. An EA-untreated group is used as a control group. IA antibody [50 μg goat anti-rat IgG (H+L) ALEXA FLUOR® 647] and IA 3% EA+antibody [50 μg goat anti-rat IgG (H+L) ALEXA FLUOR® 647 are the two comparison groups.
An ALEXA FLUOR® 647 anti-human IgG antibody was applied via IA catheter delivery to rule out the nonspecific binding to the experimental rats. 3% EA-mediated antibody brain entry via catheter placement through the internal carotid artery (left) is tested and compared. The cryosection photographs and images from the confocal microscope after EA treatment are taken for studies. An EA-untreated group is used as a control group. IA antibody [50 μg ALEXA FLUOR® 647 anti-human IgG antibody (ab201841); and IA 3% EA+50 μg ALEXA FLUOR® 647 anti-human IgG antibody (ab201841, Cambridge, MA USA) are the two comparison groups.

[5] = system: intracranial HER2-positive 4T1 breast cancer; settings: IA ethyl alcohol with IV Trastuzumab vs IV Trastuzumab, mice with intracranial HER2-positive 4T1 tumor
[6] = system: blood-brain barrier (BBB)
Experimental: Photographs of the rats in the prone and supine positions are taken for observation and further analysis.
Experimental rats are treated with varying concentrations of IA EA (in room temperature, 300 μl 5%, 3%, and 1% EA infused slowly in 1 minute, respectively) and are applied through the arterial catheter placed into the left internal carotid artery.
Experimental rats are treated with varying concentrations of IA EA (in room temperature, 300 μl 0.3%, 0.1%, and 0.01% EA infused slowly in 1 minute, respectively). They are applied through the arterial catheter placed into the left internal carotid artery.
The rapid visualization of the extravasated EB/albumin conjugate distribution after IA catheter delivery of 3% EA by fluorescence from EB dye by confocal microscopy is performed.
The fluorescence from EB dye permits the rapid visualization of extravasated EB/albumin conjugate distribution after IA catheter delivery of 3% EA. An untreated rat group is used as a control. IA 3% EA+2% EB solution treatment is used as the testing group.
The photographs of cryostatic brain sections from an untreated rat are stained with DAPI to illustrate the background nuclear staining under confocal imaging, respectively. The photo-/micrographs and magnified confocal images of the brain from the rat treated with IA 3% EA+2% EB solution are obtained for studies and comparison. The micrograph of the whole brain section is scanned by confocal microscopy to obtain the confocal images. The confocal images are further enlarged for observation.

[7] = system: blood-brain barrier (BBB); assay: Microcatheter 3% EA-mediated delivery of CD3-positive CAR T cells, confocal imaging (Experiment 26); assay type: in vivo; settings: microcatheter 3% EA + 2×10^6 CAR T cells, normal rat
Experimental: Similarly, the efficacy of microcatheter placement and infusion of an optimal 3% EA-mediated delivery of CAR T cells is validated. The CAR T cells are human CD3 positive, which can be analyzed by immunohistochemistry staining using rabbit anti-human CD3 primary antibody and Alexa Fluor 647-labeled goat anti-rabbit IgG secondary antibody to detect CD3 expression on the surface of CAR T cells by confocal imaging, as shown in FIG. 19. […] The confocal imaging staining is performed to detect the spreading of CD3-positive CAR T cells. The blue color comes from the DAPI-stained nuclei. The red color is Alexa Fluor 647-labeled […], as only the human CAR T cells are CD3 positive.

brain tissues = settings: IA 0.3% ethyl alcohol vs normal untreated mouse
Experimental: Ultrathin sections of the brains previously processed with Pelco BioWave Pro (Pelco, Fresno, CA USA) are cut at 99 nm and collected on 200-mesh copper grids. The grids are post-stained in uranyl acetate (0.2%) and filtered for 15 min. Grids are further stained with lead citrate and filtered for 5 min. The Tecnai Spirit G2TEM (Nanoscience Initiative, Nicholas Terrace, New York, USA) with an installed Mega View camera is used to image the samples. The micrographs are illustrated in FIG. 5 of the drawings. The scale bar is 2 μm.

Question: Which “pattern of BBB opening, coronal section” value ([1]; IA 0.1% EA) does the source give for `CCO` [ethyl alcohol] here?
Answer: homogenized BBB opening

Question: And the “dose response of BBB disruption” value ([1]; intracardiac 25%, 20%, 3%, 0.3%, 0.1%, 0.03%, 0.01%)?
Answer: dose-reverse response

Question: What about the “EB (induced BBB disruption)” value [2] of the same compound?
Answer: observed

Question: And the “time until disrupted BBB is restored” value [3]?
Answer: around 2 hours

Question: And the “antibody staining (pink color) in brain, confocal” value ([4]; IA 3% EA+50 μg ALEXA FLUOR 647 anti-human IgG antibody, rats)?
Answer: even and widely spread pink color

Question: What about the “antibody staining (pink color) in brain, confocal” value ([4]; IA 3% EA+50 μg goat anti-rat IgG (H+L) ALEXA FLUOR 647, rats) of the same compound?
Answer: even and widely spread pink color

Question: And the “fluorescence of labeled antibody, left hemisphere vs right hemisphere” value ([4]; IA 3% EA+50 μg goat anti-rat IgG (H+L) ALEXA FLUOR 647 via left ICA catheter, rat)?
Answer: more dense fluorescence than the right hemisphere

Question: What about the “Trastuzumab brain tumor entry (integrated optical density, confocal imaging)” value [5] of the same compound?
Answer: significantly enhance

Question: What about the “extravasated EB at the lowest concentration of EA” value ([6]; 300 μl 0.01% EA in 1 minute via left ICA catheter, rats) of the same compound?
Answer: can still be visualized in the left hemisphere of the brain tissue

Question: What about the “extravasated EB in coronal sections” value ([6]; 300 μl 5%, 3%, and 1% EA in 1 minute via left ICA catheter, 2 hours after, rats) of the same compound?
Answer: spreading out homogeneously through almost the whole section of the left hemisphere of the brain

Question: What about the “autofluorescence from EB/albumin by confocal microscopy” value ([6]; IA 3% EA+2% EB, whole brain section, left hemisphere, rat) of the same compound?
Answer: massive spreading of autofluorescence

Question: And the “location of extravasated EB” value ([6]; left-side IA catheter, EA+2% EB, Fisher 344 rats)?
Answer: inside the left vitreous humor, but not inside the right

Question: And the “delivery of CAR T cells into brain tissue” value [7]?
Answer: can deliver BBB-impermeable CAR T cells into normal rat brain tissue

Question: What about the “ultrastructure of brain tissues (TEM)” value (brain tissues) of the same compound?
Answer: many open spaces
